Measurements from patent US10870647B2, “Imidazopyridine derivative, method for preparing same, and pharmaceutical composition containing same as active ingredient for preventing or treating cancer” (DAEGU-GYEONGBUK MEDICAL INNOVATION FOUNDATION, priority 2016, dated 2020).

Assays:
Assay in all cases: Kinase selectivity, scanMAX Kinase assay panel (DiscoverX), % control at 1 uM
Format in all cases: binding
[1] = target: T1, scanMAX Kinase assay panel (Homo sapiens, UniProt P48736); settings: PIK3CG; 1 uM; read-out: Percent Control (%)
T1 construct: purchased DiscoverX
Summary of the method: (§1)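 Each kinase was first exposed to the test compound at 1 uM in DMSO. Signal was then normalised to positive and negative controls to give % control. Finally, any enzyme showing <35% control was judged inhibited.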

[2] = target: T2, scanMAX Kinase assay panel (Homo sapiens, UniProt P31152); settings: ERK4; 1 uM; read-out: Percent Control (%)
T2 construct: purchased DiscoverX
Summary of the method: as §1

[3] = target: T3, scanMAX Kinase assay panel (Homo sapiens, UniProt P50613); settings: CDK7; 1 uM; read-out: Percent Control (%)
T3 construct: purchased DiscoverX
Summary of the method: as §1

[4] = target: T4, scanMAX Kinase assay panel (Homo sapiens, UniProt O60674); settings: JAK2 (JH1domain-catalytic); 1 uM; read-out: Percent Control (%)
T4 construct: purchased DiscoverX
Summary of the method: as §1

[5] = target: T5, scanMAX Kinase assay panel (Homo sapiens, UniProt P51956); settings: NEK3; 1 uM; read-out: Percent Control (%)
T5 construct: purchased DiscoverX
T5 sequence (P51956 1-506): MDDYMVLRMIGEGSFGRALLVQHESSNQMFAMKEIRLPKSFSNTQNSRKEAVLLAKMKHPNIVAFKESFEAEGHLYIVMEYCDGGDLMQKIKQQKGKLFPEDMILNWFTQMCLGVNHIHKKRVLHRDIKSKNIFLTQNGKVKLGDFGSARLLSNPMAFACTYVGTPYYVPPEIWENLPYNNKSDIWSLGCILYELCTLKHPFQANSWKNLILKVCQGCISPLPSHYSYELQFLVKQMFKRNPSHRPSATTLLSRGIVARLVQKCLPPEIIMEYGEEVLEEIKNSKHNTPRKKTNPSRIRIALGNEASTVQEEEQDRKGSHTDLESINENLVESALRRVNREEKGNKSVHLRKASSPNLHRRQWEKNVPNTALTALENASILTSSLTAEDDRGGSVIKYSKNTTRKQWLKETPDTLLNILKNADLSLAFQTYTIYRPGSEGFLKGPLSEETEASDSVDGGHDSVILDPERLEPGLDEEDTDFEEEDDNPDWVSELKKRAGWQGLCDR
Summary of the method: as §1

[6] = target: T6, scanMAX Kinase assay panel (Homo sapiens, UniProt P10721, A829P); settings: KIT (A829P); 1 uM; read-out: Percent Control (%)
T6 construct: purchased DiscoverX
Summary of the method: as §1

[7] = target: T7, scanMAX Kinase assay panel (Homo sapiens, UniProt P49840); settings: GSK3A; 1 uM; read-out: Percent Control (%)
T7 construct: purchased DiscoverX
Summary of the method: as §1

[8] = target: T8, scanMAX Kinase assay panel (Homo sapiens, UniProt O75116); settings: ROCK2; 1 uM; read-out: Percent Control (%)
T8 construct: purchased DiscoverX
Summary of the method: as §1

[9] = target: T9, scanMAX Kinase assay panel (Homo sapiens, UniProt Q16584); settings: MLK3; 1 uM; read-out: Percent Control (%)
T9 construct: purchased DiscoverX
Summary of the method: as §1

[10] = target: T10, scanMAX Kinase assay panel (Homo sapiens, UniProt Q9Y4K4); settings: MAP4K5; 1 uM; read-out: Percent Control (%)
T10 construct: purchased DiscoverX
Summary of the method: as §1

[11] = target: T11, scanMAX Kinase assay panel (Homo sapiens, UniProt Q9Y3S1); settings: WNK2; 1 uM; read-out: Percent Control (%)
T11 construct: purchased DiscoverX
Summary of the method: as §1

[12] = target: T12, scanMAX Kinase assay panel (Homo sapiens, UniProt Q5S007, G2019S); settings: LRRK2 (G2019S); 1 uM; read-out: Percent Control (%)
T12 construct: purchased DiscoverX
Summary of the method: as §1

[13] = target: T13, scanMAX Kinase assay panel (Homo sapiens, UniProt P51813); settings: BMX; 1 uM; read-out: Percent Control (%)
T13 construct: purchased DiscoverX
T13 sequence (P51813 1-675): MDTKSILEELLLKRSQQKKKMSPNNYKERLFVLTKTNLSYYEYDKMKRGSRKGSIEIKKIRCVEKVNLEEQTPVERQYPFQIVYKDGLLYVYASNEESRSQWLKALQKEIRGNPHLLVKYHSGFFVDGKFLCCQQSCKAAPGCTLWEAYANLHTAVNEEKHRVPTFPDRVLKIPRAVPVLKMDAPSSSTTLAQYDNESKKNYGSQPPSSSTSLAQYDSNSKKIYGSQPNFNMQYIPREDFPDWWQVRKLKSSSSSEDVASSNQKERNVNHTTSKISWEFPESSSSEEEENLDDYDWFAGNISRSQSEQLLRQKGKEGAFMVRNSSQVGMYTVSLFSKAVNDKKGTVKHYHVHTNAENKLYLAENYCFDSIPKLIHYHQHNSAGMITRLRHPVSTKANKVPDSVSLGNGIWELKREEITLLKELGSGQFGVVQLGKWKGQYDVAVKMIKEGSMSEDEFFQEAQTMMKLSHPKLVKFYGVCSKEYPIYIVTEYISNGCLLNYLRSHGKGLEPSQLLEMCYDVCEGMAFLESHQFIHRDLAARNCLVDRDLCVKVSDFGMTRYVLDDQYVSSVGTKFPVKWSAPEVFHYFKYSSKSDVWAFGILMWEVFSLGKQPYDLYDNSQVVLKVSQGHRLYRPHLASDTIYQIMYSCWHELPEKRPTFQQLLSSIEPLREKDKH
Summary of the method: as §1

[14] = target: T14, scanMAX Kinase assay panel (Homo sapiens, UniProt P35916); settings: FLT4; 1 uM; read-out: Percent Control (%)
T14 construct: purchased DiscoverX
Summary of the method: as §1

[15] = target: T15, scanMAX Kinase assay panel (Homo sapiens, UniProt Q05655); settings: PRKCD; 1 uM; read-out: Percent Control (%)
T15 construct: purchased DiscoverX
Summary of the method: as §1

[16] = target: T16, scanMAX Kinase assay panel (Homo sapiens, UniProt Q9BYT3); settings: STK33; 1 uM; read-out: Percent Control (%)
T16 construct: purchased DiscoverX
Summary of the method: as §1

[17] = target: T17, scanMAX Kinase assay panel (Homo sapiens, UniProt P17612); settings: PKAC-alpha; 1 uM; read-out: Percent Control (%)
T17 construct: purchased DiscoverX
Summary of the method: as §1

T4 sequence (O60674 whole entry): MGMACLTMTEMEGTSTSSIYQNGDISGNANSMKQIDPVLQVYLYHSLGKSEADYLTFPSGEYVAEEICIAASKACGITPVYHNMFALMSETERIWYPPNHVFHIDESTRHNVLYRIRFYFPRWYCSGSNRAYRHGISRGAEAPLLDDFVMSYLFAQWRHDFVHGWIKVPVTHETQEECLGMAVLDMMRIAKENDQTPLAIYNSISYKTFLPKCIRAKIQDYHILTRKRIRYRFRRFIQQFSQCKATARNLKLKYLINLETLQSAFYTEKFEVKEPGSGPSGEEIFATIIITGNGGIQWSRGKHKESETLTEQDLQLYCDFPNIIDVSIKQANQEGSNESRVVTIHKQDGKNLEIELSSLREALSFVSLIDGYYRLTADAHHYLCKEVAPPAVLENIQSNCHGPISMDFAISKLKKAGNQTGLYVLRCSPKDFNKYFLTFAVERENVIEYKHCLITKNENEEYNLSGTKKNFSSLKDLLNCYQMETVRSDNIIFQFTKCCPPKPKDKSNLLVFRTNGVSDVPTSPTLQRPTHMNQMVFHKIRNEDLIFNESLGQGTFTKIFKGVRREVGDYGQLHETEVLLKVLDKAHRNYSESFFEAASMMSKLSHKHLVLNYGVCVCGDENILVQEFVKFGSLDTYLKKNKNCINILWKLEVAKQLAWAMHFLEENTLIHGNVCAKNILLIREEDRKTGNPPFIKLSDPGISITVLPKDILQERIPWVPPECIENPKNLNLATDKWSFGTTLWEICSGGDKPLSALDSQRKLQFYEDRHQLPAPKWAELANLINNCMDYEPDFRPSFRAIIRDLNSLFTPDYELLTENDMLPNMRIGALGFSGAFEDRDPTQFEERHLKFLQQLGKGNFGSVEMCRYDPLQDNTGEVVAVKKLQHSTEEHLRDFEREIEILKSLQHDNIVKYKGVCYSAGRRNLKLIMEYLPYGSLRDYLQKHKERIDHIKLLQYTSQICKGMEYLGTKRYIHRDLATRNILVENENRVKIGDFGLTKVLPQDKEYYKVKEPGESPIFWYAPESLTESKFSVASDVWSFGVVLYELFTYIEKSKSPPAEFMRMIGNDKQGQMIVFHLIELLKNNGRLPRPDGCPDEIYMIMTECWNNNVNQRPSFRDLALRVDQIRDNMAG
T10 sequence (Q9Y4K4 whole entry): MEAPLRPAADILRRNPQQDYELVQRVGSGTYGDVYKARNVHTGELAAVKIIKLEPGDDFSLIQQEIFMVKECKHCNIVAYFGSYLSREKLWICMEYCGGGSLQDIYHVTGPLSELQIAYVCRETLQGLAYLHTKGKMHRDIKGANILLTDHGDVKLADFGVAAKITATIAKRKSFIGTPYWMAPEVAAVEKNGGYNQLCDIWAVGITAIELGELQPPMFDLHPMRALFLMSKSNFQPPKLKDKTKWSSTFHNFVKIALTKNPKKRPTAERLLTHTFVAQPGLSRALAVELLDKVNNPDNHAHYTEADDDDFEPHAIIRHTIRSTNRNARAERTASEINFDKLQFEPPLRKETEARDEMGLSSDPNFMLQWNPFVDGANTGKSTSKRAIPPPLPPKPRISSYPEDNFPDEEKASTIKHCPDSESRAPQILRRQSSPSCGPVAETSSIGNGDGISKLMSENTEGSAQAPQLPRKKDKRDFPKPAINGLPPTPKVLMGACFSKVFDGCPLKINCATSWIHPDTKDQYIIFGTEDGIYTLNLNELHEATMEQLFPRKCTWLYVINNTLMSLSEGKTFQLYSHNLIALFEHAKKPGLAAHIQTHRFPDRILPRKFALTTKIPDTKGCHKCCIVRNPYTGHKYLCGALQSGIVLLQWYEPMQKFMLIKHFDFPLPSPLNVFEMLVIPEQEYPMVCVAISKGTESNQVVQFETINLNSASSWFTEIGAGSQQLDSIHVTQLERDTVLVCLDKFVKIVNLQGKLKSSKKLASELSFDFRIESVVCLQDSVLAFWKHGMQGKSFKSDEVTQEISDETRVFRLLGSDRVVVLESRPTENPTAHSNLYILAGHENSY
T11 sequence (Q9Y3S1 whole entry): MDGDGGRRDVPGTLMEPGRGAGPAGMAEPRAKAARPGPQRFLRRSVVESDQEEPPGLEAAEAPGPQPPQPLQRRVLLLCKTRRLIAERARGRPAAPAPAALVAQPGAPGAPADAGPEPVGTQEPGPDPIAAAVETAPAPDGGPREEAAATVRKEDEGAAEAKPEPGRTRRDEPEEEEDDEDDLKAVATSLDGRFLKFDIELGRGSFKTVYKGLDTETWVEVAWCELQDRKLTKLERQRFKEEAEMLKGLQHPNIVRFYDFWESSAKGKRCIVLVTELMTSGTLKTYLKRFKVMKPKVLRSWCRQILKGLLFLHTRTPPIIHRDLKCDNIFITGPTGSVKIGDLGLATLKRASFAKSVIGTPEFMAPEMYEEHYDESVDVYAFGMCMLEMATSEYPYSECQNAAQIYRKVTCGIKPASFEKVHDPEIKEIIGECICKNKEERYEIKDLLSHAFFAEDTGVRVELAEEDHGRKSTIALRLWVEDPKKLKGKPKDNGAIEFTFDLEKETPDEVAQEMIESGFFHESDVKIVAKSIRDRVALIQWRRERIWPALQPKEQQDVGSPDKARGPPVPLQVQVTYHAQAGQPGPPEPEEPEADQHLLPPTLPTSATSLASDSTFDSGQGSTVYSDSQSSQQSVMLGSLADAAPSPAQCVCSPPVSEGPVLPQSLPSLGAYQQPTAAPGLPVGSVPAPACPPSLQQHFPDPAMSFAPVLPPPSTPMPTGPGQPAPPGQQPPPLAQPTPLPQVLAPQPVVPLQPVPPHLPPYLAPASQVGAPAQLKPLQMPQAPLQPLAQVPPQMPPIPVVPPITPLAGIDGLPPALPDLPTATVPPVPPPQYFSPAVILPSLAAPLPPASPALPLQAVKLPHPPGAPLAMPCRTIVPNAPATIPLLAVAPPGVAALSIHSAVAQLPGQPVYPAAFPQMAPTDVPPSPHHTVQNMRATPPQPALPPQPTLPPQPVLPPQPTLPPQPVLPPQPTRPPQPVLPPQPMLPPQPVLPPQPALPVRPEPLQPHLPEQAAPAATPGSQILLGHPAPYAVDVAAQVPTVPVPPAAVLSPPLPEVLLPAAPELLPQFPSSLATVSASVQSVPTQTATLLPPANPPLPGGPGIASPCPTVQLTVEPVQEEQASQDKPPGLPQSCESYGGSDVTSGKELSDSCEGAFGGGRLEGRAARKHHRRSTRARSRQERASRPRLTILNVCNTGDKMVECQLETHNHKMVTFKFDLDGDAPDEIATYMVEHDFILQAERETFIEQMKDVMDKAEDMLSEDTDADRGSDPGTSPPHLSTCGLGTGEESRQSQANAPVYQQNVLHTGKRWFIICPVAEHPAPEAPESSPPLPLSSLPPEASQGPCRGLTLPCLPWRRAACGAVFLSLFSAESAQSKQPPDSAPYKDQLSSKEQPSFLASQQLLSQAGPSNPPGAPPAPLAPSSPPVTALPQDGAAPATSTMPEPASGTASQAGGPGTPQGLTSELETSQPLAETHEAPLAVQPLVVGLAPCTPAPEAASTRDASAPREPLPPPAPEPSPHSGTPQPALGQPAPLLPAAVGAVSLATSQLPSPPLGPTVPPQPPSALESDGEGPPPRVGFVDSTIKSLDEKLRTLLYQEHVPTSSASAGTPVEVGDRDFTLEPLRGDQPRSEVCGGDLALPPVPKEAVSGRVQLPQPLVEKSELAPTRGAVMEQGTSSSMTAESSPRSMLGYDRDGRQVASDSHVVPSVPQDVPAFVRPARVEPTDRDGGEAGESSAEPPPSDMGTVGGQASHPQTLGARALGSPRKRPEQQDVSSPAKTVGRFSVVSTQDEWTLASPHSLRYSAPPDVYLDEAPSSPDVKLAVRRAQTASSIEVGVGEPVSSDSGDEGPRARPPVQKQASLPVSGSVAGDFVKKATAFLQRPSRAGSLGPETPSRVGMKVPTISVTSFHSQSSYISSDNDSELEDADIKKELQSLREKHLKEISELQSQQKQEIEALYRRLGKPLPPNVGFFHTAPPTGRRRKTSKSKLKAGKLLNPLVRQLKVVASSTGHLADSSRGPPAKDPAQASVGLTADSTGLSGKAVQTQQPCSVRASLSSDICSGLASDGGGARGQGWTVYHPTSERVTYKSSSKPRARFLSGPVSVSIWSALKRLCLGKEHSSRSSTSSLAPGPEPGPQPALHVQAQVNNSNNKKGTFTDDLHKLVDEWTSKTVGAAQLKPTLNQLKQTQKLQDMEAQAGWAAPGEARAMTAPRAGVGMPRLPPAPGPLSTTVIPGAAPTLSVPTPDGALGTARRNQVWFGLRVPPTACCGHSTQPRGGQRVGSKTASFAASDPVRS
T3 sequence (P50613 whole entry): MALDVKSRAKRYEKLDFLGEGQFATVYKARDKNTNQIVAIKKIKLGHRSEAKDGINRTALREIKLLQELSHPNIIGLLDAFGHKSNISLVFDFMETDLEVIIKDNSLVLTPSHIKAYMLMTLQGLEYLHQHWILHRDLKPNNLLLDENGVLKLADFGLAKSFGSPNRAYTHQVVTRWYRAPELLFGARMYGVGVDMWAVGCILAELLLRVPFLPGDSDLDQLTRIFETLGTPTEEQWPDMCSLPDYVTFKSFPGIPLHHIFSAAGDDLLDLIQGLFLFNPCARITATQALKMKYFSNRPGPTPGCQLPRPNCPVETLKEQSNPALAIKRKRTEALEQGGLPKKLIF
T7 sequence (P49840 whole entry): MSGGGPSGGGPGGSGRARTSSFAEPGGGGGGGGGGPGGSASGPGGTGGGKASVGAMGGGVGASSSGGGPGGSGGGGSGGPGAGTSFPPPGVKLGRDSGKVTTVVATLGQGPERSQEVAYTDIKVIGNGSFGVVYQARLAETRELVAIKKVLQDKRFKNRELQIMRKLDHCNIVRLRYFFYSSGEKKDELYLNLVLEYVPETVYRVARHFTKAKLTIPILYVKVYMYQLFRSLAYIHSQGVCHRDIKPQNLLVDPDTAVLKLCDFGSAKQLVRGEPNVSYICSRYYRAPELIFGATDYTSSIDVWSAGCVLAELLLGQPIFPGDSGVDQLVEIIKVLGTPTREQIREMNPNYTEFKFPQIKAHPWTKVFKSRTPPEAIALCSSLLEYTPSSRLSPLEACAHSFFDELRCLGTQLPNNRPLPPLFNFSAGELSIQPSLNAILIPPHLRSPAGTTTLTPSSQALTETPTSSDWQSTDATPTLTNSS

| Compound | remaining binding at 1 µM [1] [%] | remaining binding at 1 µM [2] [%] | remaining binding at 1 µM [3] [%] | remaining binding at 1 µM [4] [%] | remaining binding at 1 µM [5] [%] | remaining binding at 1 µM [6] [%] | remaining binding at 1 µM [7] [%] | remaining binding at 1 µM [8] [%] | remaining binding at 1 µM [9] [%] | remaining binding at 1 µM [10] [%] | remaining binding at 1 µM [11] [%] | remaining binding at 1 µM [12] [%] | remaining binding at 1 µM [13] [%] | remaining binding at 1 µM [14] [%] | remaining binding at 1 µM [15] [%] | remaining binding at 1 µM [16] [%] | remaining binding at 1 µM [17] [%] |
| --- | --- | --- | --- | --- | --- | --- | --- | --- | --- | --- | --- | --- | --- | --- | --- | --- | --- |
| Cc1ccc(C(=O)Nc2ccc(CN3CCN(C)CC3)c(C(F)(F)F)c2)cc1C#Cc1cnc2c(Nc3cnn(C)c3)cccn12 [Example 1, 4-methyl-3-((8-((1-methyl-1H-pyrazol-4-yl)amino)imidazo[1,2-a]pyridin-3-yl)ethynyl)-N-(4-((4-methylpiperazin-1-yl)methyl)-3-(trifluoromethyl)phenyl)benzamide] | 100 | 91 | 4 | 7 | 64 | 4 | 76 | 15 | 1 | 1 | 82 | 27 | 3 | 1 | 61 | 5 | 35 |
| Cc1cn(-c2cc(NC(=O)c3ccc(C)c(C#Cc4cnc5c(Nc6cnn(C)c6)cccn45)c3)cc(C(F)(F)F)c2)cn1 [Example 12, 4-methyl-N-(3-(4-methyl-1H-imidazol-1-yl)-5-(trifluoromethyl)phenyl)-3-((8-((1-methyl-1H-pyrazol-4-yl)amino)imidazo[1,2-a]pyridin-3-yl)ethynyl)benzamide] | 100 | 100 | 66 | 100 | 86 | 29 | 100 | 100 | 14 | 12 | 100 | 100 | 9 | 6 | 81 | 40 | 93 |
| Cc1ccc(NC(=O)C2(C(=O)Nc3ccc(F)cc3)CC2)cc1C#Cc1cnc2c(Nc3cnn(C(C)C)c3)cccn12 [Example 78] | 100 | 100 | 82 | 98 | 96 | 21 | 100 | 100 | 94 | 82 | 100 | 100 | 96 | 26 | 100 | 100 | 100 |
